According to a compilation of properties of binary mixtures (doi:10.1021/acs.jced.0c00618):

Assay: xn = mol fraction of the nth substance listed
Details: 101 kPa, x2 = 0.3209

CCCC[n+]1ccn(C)c1.O=S(=O)([O-])C(F)(F)F + NCCO
Details	speed of sound [m/s]	viscosity [mPa·s]
298.15 K	1428.8	41.99
303.15 K	1417	34.4
308.15 K	1405.2	28.38
313.15 K	1393.2	23.76
318.15 K	1382.1	20.13
323.15 K	1370.6	17.25
328.15 K	1359.2	14.94
333.15 K	1348	13.05
